Assay results from US20240208952A1, “THIOPHENE GLP-1 RECEPTOR AGONIST AND USE THEREOF” (priority 2021, published 2024).

Tests used:
[1] = target: T1, Human GLP-1R (Homo sapiens, UniProt P43220); assay: GLP-1R agonist activity, HTRF cAMP level test in 293A GFP-GLP-1R cells; format: cell-based
T1 construct: expressed in transfected cells
Protocol: GLP-1R-mediated agonist activity was determined by cell-based assays using a homogeneous time-resolved fluorescence (i.e., HTRF)-based cAMP detection kit, which measures the level of cAMP in cells. The method was a competitive immunoassay. It enabled direct pharmacological characterization of compounds acting on Gs-coupled receptors in adherent or suspending cells.
The standard curve of native cAMP or unlabeled cAMP produced by cells competed with d2-labeled cAMP red receptors to bind monoclonal anti-cAMP Eu3+ cryptate donors, and the specific signal was inversely proportional to the concentration of cAMP in standard or tested samples.
Human GLP-1R encoding sequence (NCBI reference sequence NP_002053.3) was subcloned into pEGFP-N1 (tsingke), and the cell line stably expressing the receptor was isolated.
The final DMSO concentration in the buffer mixture was determined to be 1% o.
Cells were collected from a T25 tissue culture flask and centrifuged at room temperature at 1000 rpm for 5 minutes. The cell precipitates were then re-suspended in 1 mL of the stimulating buffer. 20 μL sample of cell suspension was counted on a counter STAR IC 1000 to determine the cell viability and the cell count per mL. The remaining cell suspension was then regulated with the stimulating buffer to deliver 2000 living cells per well using a multi-channel pipette. 5 μL of the cell suspension was added to each well of the plate which already contained the compound. The plate was sealed and incubated at 37° C. with 5% CO2 for 30 minutes.
After 30 minutes of incubation, 5 μL of d2-labeled cAMP and 5 μL of anti-cAMP cryptate (both 1:20 diluted in the cell lysis buffer) were added to each well of the plate. The plate was then incubated at room temperature for 60 minutes, and the changes of HTRF signal were read with Tecan Spark reader: […] at 340 nm (excitation)/at 615 nm and 665 nm (emission). Raw data were converted into nM cAMP by interpolation from the cAMP standard curve, and the effect in percentage was determined relative to the saturated concentration of the complete agonist GLP-17˜37 (400 nM) contained in each plate. Determination of EC50 was performed based on the agonist dose-response curve, which was analyzed using a four-parameter logical dose-response equation with a curve fitting program.
The test data presented the results in the form of a geometric mean (EC50s) based on the number of repetition times.

[2] = Metabolic stability in (human) liver microsomes; format: in vitro ADME; conditions: pH 7.4, 0.5 mg/mL microsomal protein, 37° C., 0-45 minutes, LC-MS/MS, read-out: LMS(t1/2 min)
Protocol: 1. Experimental design: test concentration: […]; control compound: testosterone; culture conditions: cultured at 37° C. for 0, 5, 15, 30, 45 minutes; method of determination: LC-MS/MS; calculation method: T1/2=0.693/K (K is the rate constant of the ln [concentration] vs. incubation time profile), Clint=(0.693/T1/2)×(1/(microsomal protein concentration (0.5 mg/mL)))×scaling factor.
2. Experimental method: 1. preheating 0.1 M K-buffer, […], pH=7.4; 2. test solutions of test compound and reference compound, 500 μM additive solution: 5 μL of 10 mM stock solution was added to 95 μL can; […] and 18.75 μL of 20 Mg/mL liver microsome were added to 479.75 μL of K/Mg buffer; 3. 3×NADPH stock solution (6 mM, 5 mg/mL) was prepared by dissolving NADPH in the buffer solution; 4. 30 μL of 1.5 μM additive solution containing 0.75 mg/mL microsomal solution was distributed to the plates designated for different time points (0, 5, 15, 30, 45 minutes); 5. at 0 min, 150 μL of ACN containing IS was added to the wells of the plate, followed by addition of 15 μL of NADPH stock solution (6 mM, step 3); 6. all other plates were pre-incubated at 37° C. for 5 minutes; 7. adding 15 μL of NADPH stock solution to the plate to start the reaction and timing; 8. 150 μL of ACN containing IS was added to the wells of the corresponding plates to stop the reaction at 5 min, 15 min, 30 min and 45 min, respectively; 9. after quenching, the plates were shaken on a shaker for 10 minutes (600 rpm/min) and then centrifuged at 6000 rpm for 15 minutes; 10. 80 μL of supernatant was transferred from each well to a 96-well sample plate containing 140 μL water for LC/MS analysis.
Detection method: LC-MS/MS-11 (8050), internal standard: tolbutamide; MS conditions: positive ion ESI for testosterone and test compound, and negative ion ESI for tolbutamide; Mobile phases: mobile phase A is 0.1% FA in water, and mobile phase B is 0.1% FA in ACN; Column and specification: ACQUITY UPLC HSS T3 1.8 um 2.1*50 mm.

[3] = target: hERG potassium channel (Homo sapiens, UniProt Q12809); assay: Inhibition of hERG potassium channels, whole-cell patch clamp in HEK-hERG cells; conditions: HEK293 cells stably expressing hERG (HEK-hERG)
Sequence of hERG potassium channel (Q12809 whole entry): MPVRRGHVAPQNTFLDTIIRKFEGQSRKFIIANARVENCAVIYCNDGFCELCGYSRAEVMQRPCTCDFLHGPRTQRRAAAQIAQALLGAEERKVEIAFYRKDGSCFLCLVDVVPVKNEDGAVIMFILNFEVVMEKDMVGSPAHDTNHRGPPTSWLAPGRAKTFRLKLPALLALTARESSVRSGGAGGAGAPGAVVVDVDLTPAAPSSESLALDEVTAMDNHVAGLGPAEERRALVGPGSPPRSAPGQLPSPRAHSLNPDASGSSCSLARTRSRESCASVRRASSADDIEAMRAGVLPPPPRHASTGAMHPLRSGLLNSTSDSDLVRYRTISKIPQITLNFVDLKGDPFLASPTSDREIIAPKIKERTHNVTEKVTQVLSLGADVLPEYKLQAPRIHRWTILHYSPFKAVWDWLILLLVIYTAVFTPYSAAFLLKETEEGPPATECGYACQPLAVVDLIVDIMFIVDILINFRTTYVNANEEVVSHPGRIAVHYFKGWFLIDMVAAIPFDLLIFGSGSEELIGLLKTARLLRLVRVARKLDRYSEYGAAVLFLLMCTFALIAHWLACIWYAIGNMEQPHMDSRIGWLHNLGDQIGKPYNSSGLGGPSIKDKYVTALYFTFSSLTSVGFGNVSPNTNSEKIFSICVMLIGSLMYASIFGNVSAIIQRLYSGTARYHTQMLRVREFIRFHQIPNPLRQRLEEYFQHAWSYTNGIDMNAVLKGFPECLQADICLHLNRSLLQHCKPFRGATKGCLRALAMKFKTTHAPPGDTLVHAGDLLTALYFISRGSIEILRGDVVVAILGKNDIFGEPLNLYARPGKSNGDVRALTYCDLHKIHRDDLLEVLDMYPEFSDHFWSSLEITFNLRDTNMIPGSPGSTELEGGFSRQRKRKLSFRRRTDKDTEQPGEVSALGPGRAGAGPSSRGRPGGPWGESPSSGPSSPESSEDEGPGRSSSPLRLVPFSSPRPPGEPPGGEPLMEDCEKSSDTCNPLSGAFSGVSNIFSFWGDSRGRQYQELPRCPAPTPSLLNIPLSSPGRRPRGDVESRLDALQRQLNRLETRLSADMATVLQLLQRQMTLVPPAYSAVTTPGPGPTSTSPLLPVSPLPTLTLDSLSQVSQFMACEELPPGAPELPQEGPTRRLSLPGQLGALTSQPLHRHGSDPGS
Protocol: The cell suspension was added to a small petri dish and placed on an inverted microscope stage.
Such a set of pulse programming was repeated every 15 seconds throughout the experiment.

T1 sequence (P43220 24-463): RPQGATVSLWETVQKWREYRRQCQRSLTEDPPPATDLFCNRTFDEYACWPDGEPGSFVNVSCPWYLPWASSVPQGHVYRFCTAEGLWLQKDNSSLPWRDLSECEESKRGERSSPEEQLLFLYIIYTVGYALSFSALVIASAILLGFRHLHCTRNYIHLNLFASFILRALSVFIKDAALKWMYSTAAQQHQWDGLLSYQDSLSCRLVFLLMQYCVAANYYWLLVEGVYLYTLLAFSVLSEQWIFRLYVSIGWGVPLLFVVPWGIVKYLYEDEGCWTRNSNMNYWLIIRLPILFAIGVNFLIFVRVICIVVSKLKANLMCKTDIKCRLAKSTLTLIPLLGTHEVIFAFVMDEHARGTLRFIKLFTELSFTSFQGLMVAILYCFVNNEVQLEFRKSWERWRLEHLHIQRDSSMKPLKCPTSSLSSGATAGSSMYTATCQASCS

| EC50 [1] | half-life at 1 μM [2] | SMILES | inhibition at 1 µM [3] | inhibition at 10 µM [3] |
| --- | --- | --- | --- | --- |
| 0.08 nM | – | O=C(O)c1ccc2nc(CN3CCC(c4cccc(OCc5ccc(C(F)(F)F)s5)n4)CC3)n(C[C@@H]3CCO3)c2c1 [Compound 9, (S)-1-(oxetan-2-ylmethyl)-2-((4-(6-((5-(trifluoromethyl)thiophen-2-yl)methoxy)pyridin-2-yl)piperidin-1-yl)methyl)-1H-benzo[d]imidazole-6-carboxylic acid] | – | – |
| 0.47 nM | – | O=C(O)c1ccc2nc(CN3CCC(c4cccc(OCc5ccc(-c6cncnc6)s5)n4)CC3)n(C[C@@H]3CCO3)c2c1 [Compound 13] | – | – |
| 0.1 nM | – | Cc1cc(C#N)sc1COc1cccc(C2CCN(Cc3nc4ccc(C(=O)O)cc4n3C[C@@H]3CCO3)CC2)n1 [Compound 11, (S)-2-((4-(6-((5-cyano-3-methylthiophen-2-yl)methoxy)pyridin-2-yl)piperidin-1-yl)methyl)-1-(oxetan-2-ylmethyl)-1H-benzo[d]imidazole-6-carboxylic acid] | – | – |
| 0.56 nM | 37.3 min | CC(=O)c1cc(Cl)c(COc2cccc(C3CCN(Cc4nc5ccc(C(=O)O)cc5n4C[C@@H]4CCO4)CC3)n2)s1 [Compound 5, (S)-2-((4-(6-((5-acetyl-3-chlorothien-2-yl)methoxy)pyridin-2-yl)piperidin-1-yl)methyl)-1-(oxetan-2-ylmethyl)-1H-benzo[d]imidazole-6-carboxylic acid] | – | – |
| 0.03 nM | – | O=C(O)c1ccc2nc(CN3CCC(c4cccc(OCc5ccc(C(=O)C6CC6)s5)n4)CC3)n(C[C@@H]3CCO3)c2c1 [Compound 6, (S)-2-((4-(6-((5-(cyclopropanecarbonyl)thiophen-2-yl)methoxy)pyridin-2-yl)piperidin-1-yl)methyl)-1-(oxetan-2-ylmethyl)-1H-benzo[d]imidazole-6-carboxylic acid] | – | – |
| 0.5 nM | 59.8 min | N#Cc1ccc(COc2ccc3c(n2)C2=C(COC3)CN(Cc3nc4ccc(C(=O)O)cc4n3C[C@@H]3CCO3)CC2)s1 [Compound 12, (S)-2-((2-((5-cyanothiophen-2-yl)methoxy)-5,8,10,11-tetrahydro-oxepino[4,3-b:6,5-c′]dipyridin-9(7H)-yl)methyl)-1-(oxetan-2-ylmethyl)-1H-benzo[d]imidazole-6-carboxylic acid] | – | – |
| 0.05 nM | – | N#Cc1sc(COc2cccc(C3CCN(Cc4nc5ccc(C(=O)O)cc5n4C[C@@H]4CCO4)CC3)n2)cc1Cl [Compound 8, (S)-2-((4-(6-((4-chloro-5-cyanothiophen-2-yl)methoxy)pyridin-2-yl)piperidin-1-yl)methyl)-1-(oxetan-2-ylmethyl)-1H-benzo[d]imidazole-6-carboxylic acid] | – | – |
| 0.05 nM | 22.5 min | O=C(O)c1ccc2nc(CN3CCC(c4cccc(OCc5cc6ccncc6s5)n4)CC3)n(C[C@@H]3CCO3)c2c1 [Compound 10, 1-(oxetan-2-ylmethyl)-2-((4-(6-(thieno[2,3-c]pyridin-2-ylmethoxy)pyridin-2-yl)piperidin-1-yl)methyl)-1H-benzo[d]imidazole-6-carboxylic acid] | – | – |
| 0.02 nM | 21.2 min | N#Cc1cc(Cl)c(COc2cccc(C3CCN(Cc4nc5ccc(C(=O)O)cc5n4C[C@@H]4CCO4)CC3)n2)s1 [Compound 7, (S)-2-((4-(6-((3-chloro-5-cyanothiophen-2-yl)methoxy)pyridin-2-yl)piperidin-1-yl)methyl)-1-(oxetan-2-ylmethyl)-1H-benzo[d]imidazole-6-carboxylic acid] | – | – |
| 88.8 nM | – | CC(=O)c1csc(COc2cccc(C3CCN(Cc4nc5ccc(C(=O)O)cc5n4C[C@@H]4CCO4)CC3)n2)c1 [Compound 2, (S)-2-((4-(6-((4-acetylthiophen-2-yl)methoxy)pyridin-2-yl)piperidin-1-yl)methyl)-1-(oxetan-2-ylmethyl)-1H-benzo[d]imidazole-6-carboxylic acid] | – | – |
| 121 nM | – | CC(=O)c1cc(COc2cccc(C3CCN(Cc4nc5ccc(C(=O)O)cc5n4C[C@@H]4CCO4)CC3)n2)cs1 [Compound 3, (S)-2-((4-(6-((5-acetylthiophen-3-yl)methoxy)pyridin-2-yl)piperidin-1-yl)methyl)-1-(oxetan-2-ylmethyl)-1H-benzo[d]imidazole-6-carboxylic acid] | – | – |

| SMILES | EC50 [1] | half-life at 1 μM [2] | inhibition at 1 µM [3] | inhibition at 10 µM [3] |
| --- | --- | --- | --- | --- |
| CC(=O)c1ccc(COc2cccc(C3CCN(Cc4nc5ccc(C(=O)O)cc5n4C[C@@H]4CCO4)CC3)n2)s1 [Compound 1, (S)-2-((4-(6-((5-acetylthiophen-2-yl)methoxy)pyridin-2-yl)piperidin-1-yl)methyl)-1-(oxetan-2-ylmethyl)-1H-benzo[d]imidazole-6-carboxylic acid] | 4.67 nM | 115 min | 9.82% | 53.8% |
| N#Cc1ccc(COc2cccc(C3CCN(Cc4nc5ccc(C(=O)O)cc5n4C[C@@H]4CCO4)CC3)n2)s1 [Compound 4, (S)-2-((4-(6-((5-Cyanothiophen-2-yl)methoxy)pyridin-2-yl)piperidin-1-yl)methyl)-1-(oxetan-2-ylmethyl)-1H-benzo[d]imidazole-6-carboxylic acid] | 1 nM | 132 min | 14.2% | 72.2% |
